Experimental data taken from PMC12061832, “Exploring novel dilazep derivatives as hENT1 inhibitors and potentially covalent molecular tools” (Purinergic Signalling, 2024).
Where “and” joins values, the source holds several entries; their conditions need not be identical. Equal entries are not always repeated.

Biological target: T1, hENT1 (Homo sapiens, UniProt Q99808)
T1 construct: performed on erythrocyte cell membranes endogenously expressing the transporter; tissue Sanquin Bloedvoorziening, Amsterdam, The Netherlands; host or cells: erythrocyte membranes (endogenous expression)
T1 sequence (Q99808 1-456): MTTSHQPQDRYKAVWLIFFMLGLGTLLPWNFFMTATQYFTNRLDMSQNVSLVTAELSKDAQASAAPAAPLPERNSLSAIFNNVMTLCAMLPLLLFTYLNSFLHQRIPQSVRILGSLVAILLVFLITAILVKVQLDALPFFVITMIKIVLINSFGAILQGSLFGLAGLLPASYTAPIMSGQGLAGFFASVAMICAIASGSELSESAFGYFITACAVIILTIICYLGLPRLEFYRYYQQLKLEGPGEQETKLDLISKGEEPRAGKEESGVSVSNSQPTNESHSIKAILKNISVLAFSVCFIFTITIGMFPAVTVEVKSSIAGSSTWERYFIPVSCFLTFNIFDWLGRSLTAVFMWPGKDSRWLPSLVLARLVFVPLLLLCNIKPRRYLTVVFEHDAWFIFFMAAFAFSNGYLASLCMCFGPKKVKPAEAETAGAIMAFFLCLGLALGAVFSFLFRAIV
Test: [3H]NBTI displacement assay on erythrocyte membranes
Type: binding
Details: 1 µM inhibitor; [3H]NBTI displacement; mean (individual values) of two experiments
Method: Dilazep and ST7092 were obtained from ASTA-Werke AG (Bielefeld, Germany) and Chemie Linz AG (Linz, Austria), respectively. Radioligand displacement assays were performed as previously described. In brief, the experiments were performed on erythrocyte membranes (Sanquin Bloedvoorziening, Amsterdam, The Netherlands) using a single concentration of 1 µM or multiple concentrations (ranging from 10^–10 to 10^–6) of unlabeled inhibitors in the presence of 4 nM [^3H]NBTI at 10 °C for 1 h in assay buffer (50 mM Tris–HCl, pH 7.4, 0.1% w/v CHAPS). Non-specific binding (NSB) was assessed with 10 µM unlabeled NBTI. […] Subsequently, [^3H]NBTI was added to the preincubated and control samples (containing erythrocyte membranes, unlabeled inhibitor and radioligand) and both types of samples were incubated for another hour. Incubation was terminated by rapid vacuum filtration over Whatman™ UniFilter™ 96-well GF/C microplates using a FilterMate™ Universal Harvester (PerkinElmer, Groningen, The Netherlands). Subsequently, the plates were washed ten times with ice-cold wash buffer (50 mM Tris–HCl, pH 7.4). Thereafter, the filters were dried for 45 min at 55 °C and 25 µL of Microscint (PerkinElmer) was added per well. The filter-bound radioactivity was determined by scintillation spectrometry using a MicroBeta^2 2450 Microplate Counter (PerkinElmer).
For data analysis, dilazep and ST7092 were used as positive controls. All experimental data was analyzed using GraphPad Prism 10.0.2 software (GraphPad Software Inc., San Diego, CA, USA). [^3H]NBTI assays were baseline-corrected with NSB and normalized to this value (0%) and TB (100%). The radioligand displacement curves were fitted to a one-site binding model by nonlinear regression from which the pIC50 values were obtained. […] Data shown represent the mean ± SD of at least two or mean ± SEM of at least three individual experiments each performed in duplicate.
To determine the affinities of the non-covalent hENT1 inhibitors, a [^3H]NBTI displacement assay was performed on erythrocyte cell membranes endogenously expressing the transporter. All compounds were initially screened at a concentration of 1 µM to provide the percentage displacement. If more than 75% displacement was observed, compounds were subsequently characterized in full concentration-effect curves to determine their affinity.

| Compound | % displacement at 1 μM |
| --- | --- |
| 3-(4-(3-((3-(methylamino)benzoyl)oxy)propyl)piperazin-1-yl)propyl 3,4,5-trimethoxybenzoate [Compound 6j] | 17 (16, 19) % |
| 3-(4-(3-((4-(methylamino)benzoyl)oxy)propyl)piperazin-1-yl)propyl 3,4,5-trimethoxybenzoate [Compound 6i] | 6 (3, 9) % |
| COc1cc(C(=O)OCCCN2CCN(CCCOC(=O)c3ccccc3)CC2)cc(OC)c1OC [Compound 6a, 3-(4-(3-(benzoyloxy)propyl)piperazin-1-yl)propyl 3,4,5-trimethoxybenzoate] | -3 (0, -5) % |
| COc1cc(C(=O)OCCCN2CCN(CCCOC(=O)c3ccc(C)cc3)CC2)cc(OC)c1OC [Compound 6b, 3-(4-(3-((4-methylbenzoyl)oxy)propyl)piperazin-1-yl)propyl 3,4,5-trimethoxybenzoate] | 7 (10, 3) % |
| COc1cc(C(=O)OCCCN2CCN(CCCOC(=O)c3ccc(C)c(C)c3)CC2)cc(OC)c1OC [Compound 6c, 3-(4-(3-((3,4-dimethylbenzoyl)oxy)propyl)piperazin-1-yl)propyl 3,4,5-trimethoxybenzoate] | -7 (-7, -8) % |
| COc1cc(C(=O)OCCCN2CCN(CCCOC(=O)c3cc(C)cc(C)c3)CC2)cc(OC)c1OC [Compound 6d, 3-(4-(3-((3,5-dimethylbenzoyl)oxy)propyl)piperazin-1-yl)propyl 3,4,5-trimethoxybenzoate] | -4 (-4, -4) % |
| COc1cc(C(=O)OCCCN2CCN(CCCOC(=O)c3ccc(Cl)cc3)CC2)cc(OC)c1OC [Compound 6e, 3-(4-(3-((4-chlorobenzoyl)oxy)propyl)piperazin-1-yl)propyl 3,4,5-trimethoxybenzoate] | not able to inhibit [^3H]NBTI binding and 1 (3, -1) % |
| COc1cc(C(=O)OCCCN2CCN(CCCOC(=O)c3ccc(Cl)c(Cl)c3)CC2)cc(OC)c1OC [Compound 6f, 3-(4-(3-((3,4-dichlorobenzoyl)oxy)propyl)piperazin-1-yl)propyl 3,4,5-trimethoxybenzoate] | -4 (-7, -1) % |
| COc1cc(C(=O)OCCCN2CCN(CCCOC(=O)c3cccc(N(C)C)c3)CC2)cc(OC)c1OC [Compound 6g, 3-(4-(3-((3-(dimethylamino)benzoyl)oxy)propyl)piperazin-1-yl)propyl 3,4,5-trimethoxybenzoate] | 21 (21, 21) % |
| COc1cc(C(=O)OCCCN2CCN(CCCOC(=O)c3ccc(N(C)C)cc3)CC2)cc(OC)c1OC [Compound 6h, 3-(4-(3-((4-(dimethylamino)benzoyl)oxy)propyl)piperazin-1-yl)propyl 3,4,5-trimethoxybenzoate] | 19 (11, 26) % |
| COc1ccccc1C(=O)OCCCN1CCN(CCCOC(=O)c2cc(OC)c(OC)c(OC)c2)CC1 [Compound 6k, 3-(4-(3-((2-methoxybenzoyl)oxy)propyl)piperazin-1-yl)propyl 3,4,5-trimethoxybenzoate] | little to no displacement and 6 (5, 8) % |
| COc1cccc(C(=O)OCCCN2CCN(CCCOC(=O)c3cc(OC)c(OC)c(OC)c3)CC2)c1 [Compound 6l, 3-(4-(3-((3-methoxybenzoyl)oxy)propyl)piperazin-1-yl)propyl 3,4,5-trimethoxybenzoate] | little to no displacement and 9 (3, 16) % |
| COc1ccc(C(=O)OCCCN2CCN(CCCOC(=O)c3cc(OC)c(OC)c(OC)c3)CC2)cc1 [Compound 6m, 3-(4-(3-((4-methoxybenzoyl)oxy)propyl)piperazin-1-yl)propyl 3,4,5-trimethoxybenzoate] | around 30% and 36 (39, 33) % |
| COc1ccccc1C(=O)OCCCN1CCN(CCCOC(=O)c2ccccc2OC)CC1 [Compound 6p, piperazine-1,4-diylbis(propane-3,1-diyl) bis(2-methoxybenzoate)] | 7 (15, -1) % |
| COc1cccc(C(=O)OCCCN2CCN(CCCOC(=O)c3cccc(OC)c3)CC2)c1 [Compound 6q, piperazine-1,4-diylbis(propane-3,1-diyl) bis(3-methoxybenzoate)] | 8 (11, 4) % |
| COc1ccc(C(=O)OCCCN2CCN(CCCOC(=O)c3ccc(OC)cc3)CC2)cc1 [Compound 6r, piperazine-1,4-diylbis(propane-3,1-diyl) bis(4-methoxybenzoate)] | -8 (-5, -11) % |
| COc1ccc(C(=O)OCCCN2CCN(CCCOC(=O)c3ccc(OC)c(OC)c3)CC2)cc1OC [Compound 6s, piperazine-1,4-diylbis(propane-3,1-diyl) bis(3,4-dimethoxybenzoate)] | around 30% and 27 (33, 21) % |
| COc1cc(OC)cc(C(=O)OCCCN2CCN(CCCOC(=O)c3cc(OC)cc(OC)c3)CC2)c1 [Compound 6t, piperazine-1,4-diylbis(propane-3,1-diyl) bis(3,5-dimethoxybenzoate)] | little to no displacement and 8 (12, 4) % |
| COc1ccc(C(=O)OCCCN2CCN(CCCOC(=O)c3ccccc3OC)CC2)cc1OC [Compound 6u, 3-(4-(3-((2-methoxybenzoyl)oxy)propyl)piperazin-1-yl)propyl 3,4-dimethoxybenzoate] | little to no displacement and 12 (16, 9) % |
| COc1cc(OC)cc(C(=O)OCCCN2CCN(CCCOC(=O)c3ccc(OC)c(OC)c3)CC2)c1 [Compound 6v, 3-(4-(3-((3,5-dimethoxybenzoyl)oxy)propyl)piperazin-1-yl)propyl 3,4-dimethoxybenzoate] | around 30% and 34 (42, 26) % |

Same assay, conditions: compared to ST7092

| Compound | decrease in affinity compared to ST7092 [fold] |
| --- | --- |
| COc1ccc(C(=O)OCCCN2CCN(CCCOC(=O)c3cc(OC)c(OC)c(OC)c3)CC2)cc1OC [Compound 6n, 3-(4-(3-((3,4-dimethoxybenzoyl)oxy)propyl)piperazin-1-yl)propyl 3,4,5-trimethoxybenzoate] | 80 |
| COc1cc(OC)cc(C(=O)OCCCN2CCN(CCCOC(=O)c3cc(OC)c(OC)c(OC)c3)CC2)c1 [Compound 6o, 3-(4-(3-((3,5-dimethoxybenzoyl)oxy)propyl)piperazin-1-yl)propyl 3,4,5-trimethoxybenzoate] | 80 |

Same assay, conditions: erythrocyte membranes, 4 nM [3H]NBTI, 10 °C, 1 h

| Compound | Ki [nM] |
| --- | --- |
| COc1ccc(C(=O)OCCCN2CCN(CCCOC(=O)c3cc(OC)c(OC)c(OC)c3)CC2)cc1OC [Compound 6n, 3-(4-(3-((3,4-dimethoxybenzoyl)oxy)propyl)piperazin-1-yl)propyl 3,4,5-trimethoxybenzoate] | 136 |
| COc1cc(OC)cc(C(=O)OCCCN2CCN(CCCOC(=O)c3cc(OC)c(OC)c(OC)c3)CC2)c1 [Compound 6o, 3-(4-(3-((3,5-dimethoxybenzoyl)oxy)propyl)piperazin-1-yl)propyl 3,4,5-trimethoxybenzoate] | 146 |
| COc1cc(C(=O)OCCCN2CCN(CCCOC(=O)c3cc(OC)c(OC)c(OC)c3)CC2)cc(OC)c1OC [ST7092, reference compound] | 1.79 |
